Paper PMC5527309, “Curative Treatment of Severe Gram-Negative Bacterial Infections by a New Class of Antibiotics Targeting LpxC” (mBio, 2017)
Values after ≈ are worked out from the molar mass of the structure shown. Where two headings read alike, the source gives them in different places.

How the values were obtained:
Y. pestis [1] = settings: cited from earlier work
Y. pestis [2] = settings: mouse, in vivo
OF-1 female mice = assay: Tolerability study, 5-day intravenous regimen; settings: mouse
K. pneumoniae = assay: microbe, parasite or virus in culture; assay type: cell-based, Klebsiella pneumoniae
M. morganii = assay: microbe, parasite or virus in culture; assay type: cell-based, Morganella morganii
P. aeruginosa = assay: microbe, parasite or virus in culture; assay type: cell-based, Pseudomonas aeruginosa
Enterobacter spp. = assay: microbe, parasite or virus in culture; assay type: cell-based
S. marcescens = assay: microbe, parasite or virus in culture; assay type: cell-based, Serratia marcescens
[3] = Microsomal stability analysis; settings: mouse, liver microsomes, pH 7.4
Enterobacteriaceae = assay: organism not typed; assay type: cell-based
Y. pestis CO92 = assay type: cell-based, Yersinia pestis
E. coli = assay: microbe, parasite or virus in culture; assay type: cell-based, Escherichia coli; settings: for MIC: read-out: MIC against E. coli
Shigella spp. = assay: microbe, parasite or virus in culture; assay type: cell-based
[4] = In vivo pharmacokinetics, single intravenous dose; settings: for half-life: female, OF-1, mouse, plasma, iv
A. baumannii = assay: microbe, parasite or virus in culture; assay type: cell-based, Acinetobacter baumannii
C. freundii = assay: microbe, parasite or virus in culture; assay type: cell-based, Citrobacter freundii
P. mirabilis = assay: microbe, parasite or virus in culture; assay type: cell-based, Proteus mirabilis
C. koseri = assay: microbe, parasite or virus in culture; assay type: cell-based, Citrobacter koseri
Salmonella spp = assay: microbe, parasite or virus in culture; assay type: cell-based, Salmonella enterica
Yersinia spp. = assay: microbe, parasite or virus in culture; assay type: cell-based, Y. enterocolitica and Y. pseudotuberculosis

In the case of `O=C(O)c1cn(C2CC2)c2cc(N3CCNCC3)c(F)cc2c1=O` [ciprofloxacin], the MIC (Y. pestis [1]) is listed as 0.03 µg/mL (≈ 0.0905 µM).

In the case of `C[C@H]1c2cccc(O)c2C(=O)C2=C(O)[C@]3(O)C(=O)C(C(N)=O)=C(O)[C@@H](N(C)C)[C@@H]3[C@@H](O)[C@@H]21` [doxycycline, reference compound], the MIC (Y. pestis [1]) is given as 0.5 µg/mL (≈ 1.13 µM), the “survivors at day 21 postchallenge” value (Y. pestis [2]) is given as 14 out of 15 and the “bacterial load in skin, lymph nodes, spleen, and blood of survivors” value (Y. pestis [2]; iv, 50 mg/kg) is given as “sterile”.

In the case of `CC(O)(C(F)F)C(NC(=O)c1ccc(C#Cc2ccc(CN3CCOCC3)cc2)cc1)C(=O)NO` (stereo not shown) [LPC-069], the “diarrhea and detectable toxicity” value (OF-1 female mice; 5 days, any of the regimens tested (including 200 mg/kg q8h)) is reported as “did not elicit any diarrhea or detectable toxicity”, the “MIC Range” value (K. pneumoniae) is reported as 0.2 to 0.8 µg/mL and the MIC50 (K. pneumoniae; Klebsiella pneumoniae) is reported as 0.4 µg/mL (≈ 0.821 µM). The MIC90 (K. pneumoniae; Klebsiella pneumoniae) was 0.8 µg/mL (≈ 1.64 µM), the “MIC Range” value (M. morganii) was 0.2 to 1.6 µg/mL and the MIC50 (M. morganii; Morganella morganii) was 0.2 µg/mL (≈ 0.41 µM). For the same compound, the MIC90 (M. morganii; Morganella morganii) was 0.8 µg/mL (≈ 1.64 µM), the “MIC90” value (P. aeruginosa) was 3.2 µg/mL (≈ 6.56 µM) and the “MIC Range” value (P. aeruginosa) was 0.2 to 3.2 µg/mL. For the same compound, the “more active than ceftazidime-avibactam” value (P. aeruginosa) was 4- to 8 fold, the MIC50 (P. aeruginosa; Pseudomonas aeruginosa) was 1.6 µg/mL (≈ 3.28 µM) and the MIC90 (P. aeruginosa; Pseudomonas aeruginosa) was 3.2 µg/mL (≈ 6.56 µM). The “MIC Range” value (Enterobacter spp.) was 0.1 to 1.6 µg/mL, the MIC50 (Enterobacter spp.; Enterobacter) was 0.2 µg/mL (≈ 0.41 µM) and the MIC90 (Enterobacter spp.; Enterobacter) was 0.4 µg/mL (≈ 0.821 µM). For the same compound, the “MIC Range” value (S. marcescens) was 0.1 to 0.4 µg/mL, the MIC50 (S. marcescens; Serratia marcescens) was 0.2 µg/mL (≈ 0.41 µM) and the MIC90 (S. marcescens; Serratia marcescens) was 0.2 µg/mL (≈ 0.41 µM). For the same compound, the half-life at 1 µM [3] was 44 min, the microsomal CLint at 1 µM [3] was 52 µL/min/mg and the MIC90 (Enterobacteriaceae) was 0.2 to 0.8 µg/mL (≈ 0.41 to 1.64 µM). The “type of antibacterial effect (kill curve)” value (Y. pestis CO92) was “bacteriostatic effect”, the “MIC Range” value (E. coli) was 0.05 to 0.4 µg/mL and the MIC50 (E. coli; Escherichia coli) was 0.1 µg/mL (≈ 0.205 µM). For the same compound, the MIC90 (E. coli; Escherichia coli) was 0.2 µg/mL (≈ 0.41 µM), the MIC (E. coli; Escherichia coli) was 0.1 µg/mL (≈ 0.205 µM) and the “MIC Range” value (Shigella spp.) was 0.025 to 0.2 µg/mL. For the same compound, the MIC50 (Shigella spp.; Shigella) was 0.05 µg/mL (≈ 0.103 µM), the MIC90 (Shigella spp.; Shigella) was 0.1 µg/mL (≈ 0.205 µM) and the “survivors at day 21 postchallenge” value (Y. pestis [2]) was 15 out of 15. The “colonization of the lymph nodes, spleen, and blood relative to nontreated controls” value (Y. pestis [2]; iv, 40 mg/kg) was “significantly (P < 0.02) lower colonization”, the survival rate (Y. pestis [2]; iv, 40 mg/kg) was at least 80% and the “bacterial load in skin, lymph nodes, spleen, and blood of survivors” value (Y. pestis [2]; iv, 200 mg/kg) was “sterile”. The posttreatment relapse (Y. pestis [2]; iv, 200 mg/kg) was “only one of the 15 animals”, the half-life ([4]; 40 mg/kg) was 10 min and the distribution volume ([4]; mouse, single intravenous 40-mg/kg dose) was 3.8 L/kg. The “MIC90” value (A. baumannii) was 3.2 µg/mL (≈ 6.56 µM), the MIC50 (A. baumannii; Acinetobacter baumannii) was 0.8 µg/mL (≈ 1.64 µM) and the MIC90 (A. baumannii; Acinetobacter baumannii) was 3.2 µg/mL (≈ 6.56 µM). The “MIC Range” value (C. freundii) was 0.2 to 0.4 µg/mL, the MIC50 (C. freundii; Citrobacter freundii) was 0.2 µg/mL (≈ 0.41 µM) and the MIC90 (C. freundii; Citrobacter freundii) was 0.4 µg/mL (≈ 0.821 µM). For the same compound, the “MIC Range” value (P. mirabilis) was 0.2 to 0.8 µg/mL, the MIC50 (P. mirabilis; Proteus mirabilis) was 0.2 µg/mL (≈ 0.41 µM) and the MIC90 (P. mirabilis; Proteus mirabilis) was 0.4 µg/mL (≈ 0.821 µM). The “MIC Range” value (C. koseri) was 0.1 to 1.6 µg/mL, the MIC50 (C. koseri; Citrobacter koseri) was 0.4 µg/mL (≈ 0.821 µM) and the MIC90 (C. koseri; Citrobacter koseri) was 0.4 µg/mL (≈ 0.821 µM). For the same compound, the “MIC Range” value (Salmonella spp) was 0.2 to 0.8 µg/mL, the MIC50 (Salmonella spp; Salmonella) was 0.4 µg/mL (≈ 0.821 µM) and the MIC90 (Salmonella spp; Salmonella) was 0.4 µg/mL (≈ 0.821 µM). The “MIC Range” value (Yersinia spp.) was 0.2 to 0.8 µg/mL, the MIC50 (Yersinia spp.; Yersinia) was 0.4 µg/mL (≈ 0.821 µM) and the MIC90 (Yersinia spp.; Yersinia) was 0.8 µg/mL (≈ 1.64 µM).

With `CC(O)(C(F)F)C(NC(=O)c1ccc(C#CC#Cc2ccc(N)cc2)cc1)C(=O)NO` (stereo not shown) [LPC-058] the “renal function (blood urea nitrogen) and hepatic function” value (OF-1 female mice; 10 mg/kg q8h, 5 days) was “normal”, the tissue damage (OF-1 female mice; 10 mg/kg q8h, 5 days) was “no tissue damage was detected” and the “histology (hematoxylin-eosin, 5-µm sections)” value (OF-1 female mice; 40 mg/kg q12h, 5 days) was “accumulation of polymorphonuclear cells in the lung and large intestine”. For the same compound, the “liver toxicity (blood alanine aminotransferase level)” value (OF-1 female mice; 40 mg/kg q12h, 5 days) was “liver toxicity”, the “plasma protein levels at the end of the 5-day regimen” value (OF-1 female mice; 5-day regimen) was “Low plasma protein levels” and the “appearance of diarrhea after the first injection” value (OF-1 female mice; 5-day regimen, regardless of regimen (10 mg/kg q8h, 20 mg/kg q12h, 40 mg/kg q12h)) was 3 days. The half-life at 1 µM [3] was 95 min, the microsomal CLint at 1 µM [3] was 24 µL/min/mg and the “type of antibacterial effect (kill curve)” value (Y. pestis CO92) was “bacteriostatic effect”. For the same compound, the MIC (E. coli; Escherichia coli) was 0.025 µg/mL (≈ 0.0585 µM), the “colonization of the lymph nodes, spleen, and blood relative to nontreated controls” value (Y. pestis [2]; iv, 10 mg/kg) was “significantly (P < 0.02) lower colonization” and the survival rate (Y. pestis [2]; iv, 10 mg/kg) was at least 80%. The “AUC greater than AUC of LPC-069” value ([4]; LPC-058 single dose 20 mg/kg versus LPC-069 single dose 40 mg/kg, mouse) was “approximately 10 fold”, the half-life ([4]; 20 mg/kg) was 53 min and the tissue distribution volume ([4]; mouse, single intravenous dose of 20 mg/kg) was 1.1 L/kg.
